{"source": "patent US9139485B2", "about": "“Plant treatment agent” (UNIVERSITI PUTRA MALAYSIA, priority 2011, dated 2015)", "key": {"[1]": {"assay": "Selected chemical properties of peat soil water and urea", "type": "physicochemical", "details": "glass electrode", "experimental": "Peat soil water (waste water) was collected from natural flows of peat water at Suai Miri Sarawak, Malaysia. The mineral soil used was Bekenu Series (Fine loamy, siliceous, isohyperthermic, red-yellow to yellow Tipik Tualemkuts). It was sampled in an undisturbed area of Universiti Putra Malaysia Bintulu Sarawak Campus, Malaysia using an auger. The soil taken at 0-15 cm depth was air dried and ground to pass 2.0 mm sieve for laboratory experiment. The soil texture was determined using the hydrometer method (Bouyoucos, 1962) and its field capacity and bulk density determined by the method described by Tan (2005). The pH of the soil was determined in a 1:2 soil:distilled water suspension and KCl using a glass electrode. However, the pH of the peat soil water was determined directly from filtered samples using a glass electrode. The soil total carbon, N and organic matter were determined using LECO CHNS Analyzer (Leco Truspec Micro Elemental Analyzer CHNS, New York). Soil available P was extracted using the double acid method (Tan, 2005) followed by blue method (Murphy and Riley, 1962). The Kjedhal method was used to determine total N. Exchangeable cations were extracted using leaching method and their concentrations were afterwards determined using followed Atomic Absorption Spectrometry (AAS). Soil CEC was determined by the leaching method followed by steam distillation."}, "[2]": {"tested_on": "Hybrid no. 5 variety (Zea mays L.)", "assay": "Greenhouse pot experiment: dry weight, N, P, K uptake and use efficiency of maize plant", "type": "in vivo", "details": "56 days after planting", "experimental": "A pot experiment was conducted in a greenhouse of Universiti Putra Malaysia Bintulu Sarawak Campus, Malaysia using randomized complete block design (RCBD) with three replications. Each pot size was 22×28 cm. Each was filled with 10 kg soil (based on bulk density of the soil). Hybrid no. 5 variety (Zea mays L.) was used as the test crop. Its N, P, and K requirement were 60 kg N, 60 kg P2O5 and 40 kg K2O (130 kg ha^−1 urea: 130 kg ha^−1 TSP: 67 kg ha^−1 KCl). The fertilizer requirement was scaled down to per pot basis equivalent to 2.02 g of urea, […]. The volume of water used for each pot was based on field capacity (70%). The three treatments devised for this experiment were as follows: • i. No fertilizer (T0) • ii. 2.02 g urea (T1) • iii. 2.02 g urea+7 L peat soil water (T2)\nAll treatments were applied on the 10th day after planting (DAP). However TSP and KCl which were common to all the treatments were applied on 10 DAP and 28 DAP. The plants were monitored until tassel stage. Tassel stage is the maximum growth stage for plants before they enter productive stage.\nHarvesting was done on the 56th DAP. The whole plant including leaves and stem were harvested. The remaining roots in the soil were removed carefully. They were cleaned using tap and distilled water. The plant parts (leaves, stem and roots) were then oven-dried at 60° C. until constant weight was attained afterwhich they weighed using a digital balance. Soil samples were also taken from the pots, air-dried, pounded and sieved to a pass 2 mm before they were analyzed for pH, exchangeable cations (K, Mg, and Ca), total carbon, total N, available P, exchangeable ammonium and available nitrate, using standard procedures. Each plants part was ground and analyzed for total K, Mg, Ca, Na, N, and P.\nNitrogen, P and K uptake in leaves, stem and roots were determined by multiplying the concentration with the dry weight of the plant parts. Nitrogen, P and K use efficiency were determined by the formula of Pomares-Gracia and Pratt (1987).\nAnalysis of variance (ANOVA) was used to test the effect of treatments while means of treatments were compared using Duncan's Test. Statistical Analysis System (SAS Ver. 9.2) was used for the statistical analysis."}}, "note": "Marks after values point to notes of the source that are not given here."}
{"smiles": "NC(N)=O", "note": "[Treatment T1, urea]", "values": [{"measurement": "pHw", "setting": "[1]; listed as Urea", "result": 8.00}, {"measurement": "pHw", "setting": "[1]; listed as urea", "result": "basic"}, {"measurement": "dry weight of maize plant, Leaves", "setting": "[2]", "result": "6.00^b g plant^−1"}, {"measurement": "dry weight of maize plant, Roots", "setting": "[2]", "result": "3.18^b g plant^−1"}, {"measurement": "dry weight of maize plant, Stems", "setting": "[2]", "result": "5.71^d g plant^−1"}, {"measurement": "dry weight of maize plant, Total", "setting": "[2]", "result": "14.89^b g plant^−1"}, {"measurement": "K use efficiency of maize plant", "setting": "[2]; Leaves", "result": "1.17^a %"}, {"measurement": "N use efficiency of maize plant", "setting": "[2]; Leaves", "result": "1.26^a %"}, {"measurement": "P use efficiency of maize plant", "setting": "[2]; Leaves", "result": "0.31^a %"}, {"measurement": "K use efficiency of maize plant", "setting": "[2]; Roots", "result": "1.75^a %"}, {"measurement": "N use efficiency of maize plant", "setting": "[2]; Roots", "result": "0.37^a %"}, {"measurement": "P use efficiency of maize plant", "setting": "[2]; Roots", "result": "0.40^a %"}, {"measurement": "K use efficiency of maize plant", "setting": "[2]; Stem", "result": "2.17^a %"}, {"measurement": "N use efficiency of maize plant", "setting": "[2]; Stem", "result": "0.24^d %"}, {"measurement": "P use efficiency of maize plant", "setting": "[2]; Stem", "result": "0.32^a %"}, {"measurement": "K use efficiency of maize plant", "setting": "[2]; Total", "result": "5.09^a %"}, {"measurement": "N use efficiency of maize plant", "setting": "[2]; Total", "result": "1.87^a %"}, {"measurement": "P use efficiency of maize plant", "setting": "[2]; Total", "result": "1.03^a %"}]}
